Laboratory results taken from BigSolDB 2.1.

Conditions: in water

A solubility (mole fraction) (293.15 K) of 0.000376, a solubility (mole fraction) (298.15 K) of 0.000522 and a solubility (mole fraction) (303.15 K) of 0.000646 were found for `COc1cc(C(=O)O)cc(OC)c1O` in this work. The solubility (mole fraction) (308.15 K) was 0.000794, the solubility (mole fraction) (313.15 K) was 0.000915 and the solubility (mole fraction) (318.15 K) was 0.00105.

A solubility (mole fraction) (293.15 K) of 0.00212, a solubility (mole fraction) (298.15 K) of 0.00223 and a solubility (mole fraction) (303.15 K) of 0.00229 were found for `O=C(O)c1ccc(O)c(O)c1` in this work. The solubility (mole fraction) (308.15 K) was 0.00238, the solubility (mole fraction) (313.15 K) was 0.00244 and the solubility (mole fraction) (318.15 K) was 0.00256.

A solubility (mole fraction) (293.15 K) of 0.00117, a solubility (mole fraction) (298.15 K) of 0.00122 and a solubility (mole fraction) (303.15 K) of 0.00128 were found for `O=C(O)c1cc(O)c(O)c(O)c1` in this work. For the same compound, the solubility (mole fraction) (308.15 K) was 0.00131, the solubility (mole fraction) (313.15 K) was 0.00138 and the solubility (mole fraction) (318.15 K) was 0.00143.

A solubility (mole fraction) (293.15 K) of 0.000989, a solubility (mole fraction) (298.15 K) of 0.00117 and a solubility (mole fraction) (303.15 K) of 0.00151 were found for `COc1cc(C=O)ccc1O` in this work. It also gave a solubility (mole fraction) (308.15 K) of 0.00182, a solubility (mole fraction) (313.15 K) of 0.0021 and a solubility (mole fraction) (318.15 K) of 0.00239.
